Assay [1] addresses T1, KRas G12D (Homo sapiens (Human), UniProt P01116, G12D). The experiment in a line: KRas G12D Binding Assay (TR-FRET displacement of Cy5 labelled tracer). To be noted: GDP-loaded KRAS G12D (amino acids 1:169), 60 minute incubation at 22° C. The protocol: After a 60 minute incubation at 22° C., the reaction was measured using a PerkinElmer EnVision multimode plate reader via TR-FRET dual wavelength detection, and the percent of control (POC) calculated using a ratiometric emission factor. […] The POC values were fit to a 4-parameter logistic curve and the IC50 value was determined as the concentration where the curve crosses 50 POC.
ND stands for “not determined.”
For orientation: Time-resolved FRET reads energy transfer from a long-lived donor to a nearby acceptor.
Target sequence in this assay (P01116 other isoform, or with tags, fused parts or gaps G12D): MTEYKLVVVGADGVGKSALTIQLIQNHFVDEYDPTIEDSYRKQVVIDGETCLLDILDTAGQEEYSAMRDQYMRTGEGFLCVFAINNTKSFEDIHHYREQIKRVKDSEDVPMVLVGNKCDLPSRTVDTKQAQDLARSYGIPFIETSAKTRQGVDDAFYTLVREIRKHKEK

The target in assay [2] is T1, KRas G12D. The experiment in a line: KRas G12D Surface Plasmon Resonance (SPR) Binding Assay. Particulars: Biacore T200, immobilized biotinylated KRAS protein, 1:1 binding model. (In SPR one partner is held on a chip, and binding of the other changes the refractive index at the surface.)
Target sequence in this assay (P01116-2 other isoform, or with tags, fused parts or gaps G12D): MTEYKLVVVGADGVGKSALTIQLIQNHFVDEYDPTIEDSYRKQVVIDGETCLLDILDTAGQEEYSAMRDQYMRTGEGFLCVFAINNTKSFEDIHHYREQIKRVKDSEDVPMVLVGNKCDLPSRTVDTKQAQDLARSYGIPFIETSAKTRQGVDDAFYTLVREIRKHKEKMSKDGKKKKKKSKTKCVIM

The structures appear in SMILES notation. Bounds are passed on as bounds.

Experimental findings from patent US20230279025A1, “KRAS G12D INHIBITORS” (Mirati Therapeutics, Inc., priority 2020, published 2023) are described below.

Consider `Fc1c(-c2cccc3cccc(Cl)c23)ncc2c(N3C[C@H]4CC[C@@H](C3)N4)nc(OCC3COC3)nc12` [Example 53, 4-((1R,5S)-3,8-diazabicyclo[3.2.1]octan-3-yl)-7-(8-chloronaphthalen-1-yl)-8-fluoro-2-(oxetan-3-ylmethoxy)pyrido[4,3-d]pyrimidine], for which the IC50 – broadly, the midpoint of a concentration-inhibition curve – in assay [1] was determined as 1.88 µM. Moreover, the affinity in assay [2], expressed as Kd, was 4.37 µM.
For the molecule `O=Cc1cc(CCCOc2nc(N3C[C@H]4CC[C@@H](C3)N4)c3cnc(-c4cccc5cccc(Cl)c45)c(F)c3n2)ccc1O` [Example 320, 5-(3-((4-((1R,5S)-3,8-diazabicyclo[3.2.1]octan-3-yl)-7-(8-chloronaphthalen-1-yl)-8-fluoropyrido[4,3-d]pyrimidin-2-yl)oxy)propyl)-2-hydroxybenzaldehyde], the IC50 in assay [1] is > 10 µM. The Kd – broadly, the concentration at which binding is half-saturated – in assay [2] was 71.6 µM.
`CN1CCC[C@H]1COc1nc(N2C[C@H]3CC[C@@H](C2)N3)c2cnc(-c3cccc4ccc(F)cc34)c(F)c2n1` [Example 19, 4-((1R,5S)-3,8-diazabicyclo[3.2.1]octan-3-yl)-8-fluoro-7-(7-fluoronaphthalen-1-yl)-2-(((S)-1-methylpyrrolidin-2-yl)methoxy)pyrido[4,3-d]pyrimidine]: the IC50 in assay [1] came to 0.122 µM. Binding in assay [2] was put at a Kd of 0.665 µM.
In the same order, the values of `Cn1cncc1COc1nc(N2C[C@H]3CC[C@@H](C2)N3)c2cnc(-c3cc(O)cc4ccccc34)c(F)c2n1` [Example 95, 4-(4-((1R,5S)-3,8-diazabicyclo[3.2.1]octan-3-yl)-8-fluoro-2-((1-methyl-1H-imidazol-5-yl)methoxy)pyrido[4,3-d]pyrimidin-7-yl)naphthalen-2-ol] are 0.561 µM and 1.13 µM.
In assay [1], `CN1CCC[C@H]1COc1nc(N2CC3CCC(Cl)(C2)N3)c2cnc(-c3cc(O)cc4ccccc34)c(F)c2n1` (stereo partly drawn) [Example 160, 4-(4-(1-chloro-3,8-diazabicyclo[3.2.1]octan-3-yl)-8-fluoro-2-(((S)-1-methylpyrrolidin-2-yl)methoxy)pyrido[4,3-d]pyrimidin-7-yl)naphthalen-2-ol bis(2,2,2-trifluoroacetate)] registered an IC50 of 0.12 µM. Moreover, in assay [2], the Kd was found to be 0.0003 µM.
On to `Oc1cc(-c2ncc3c(N4C[C@H]5CC[C@@H](C4)N5)nc(N4CC5(CCOC5)C4)nc3c2F)c2ccccc2c1` [Example 76, 4-(4-((1R,5S)-3,8-diazabicyclo[3.2.1]octan-3-yl)-8-fluoro-2-(6-oxa-2-azaspiro[3.4]octan-2-yl)pyrido[4,3-d]pyrimidin-7-yl)naphthalen-2-ol], for which the half-maximal inhibitory concentration (IC50) in assay [1] was determined as 0.131 µM. The molecule also came in with a dissociation constant (Kd) in assay [2] of 0.197 µM.
The molecule `Cn1ccnc1CCOc1nc(N2C[C@H]3CC[C@@H](C2)N3)c2cnc(-c3cccc4cccc(Cl)c34)c(F)c2n1` [Example 114, 4-((I R,5S)-3,8-diazabicyclo[3.2.1]octan-3-yl)-7-(8-chloronaphthalen-1-yl)-8-fluoro-2-(2-(1-methyl-1H-imidazol-2-yl)ethoxy)pyrido[4,3-d]pyrimidine] gave an IC50 in assay [1] of 0.482 µM. The molecule also returned a Kd in assay [2] of 0.384 µM.
In the same order, the values of `Oc1cc(-c2ncc3c(N4C[C@H]5CC[C@@H](C4)N5)nc(OC4CCOCC4)nc3c2F)c2ccccc2c1` [Example 72, 4-(4-((1R,5S)-3,8-diazabicyclo[3.2.1]octan-3-yl)-8-fluoro-2-((tetrahydro-2H-pyran-4-yl)oxy)pyrido[4,3-d]pyrimidin-7-yl)naphthalen-2-ol] are 0.513 µM and 0.507 µM.
In turn, `CN1CCC[C@H]1COc1nc(N2C[C@H]3CC[C@@H](C2)N3)c2cnc(-c3cc(O)c(Br)c4ccccc34)c(F)c2n1` [Example 14, 4-(4-((1R,5S)-3,8-diazabicyclo[3.2.1]octan-3-yl)-8-fluoro-2-(((S)-1-methylpyrrolidin-2-yl)methoxy)pyrido[4,3-d]pyrimidin-7-yl)-1-bromonaphthalen-2-ol] came in with an IC50 in assay [1] of 0.0739 µM. This molecule also gave a Kd in assay [2] of 0.0051 µM.
`OC[C@H](O)COc1nc(N2C[C@H]3CC[C@@H](C2)N3)c2cnc(-c3cccc4cccc(Cl)c34)c(F)c2n1` [Example 55, (S)-3-((4-((1R,5S)-3,8-diazabicyclo[3.2.1]octan-3-yl)-7-(8-chloronaphthalen-1-yl)-8-fluoropyrido[4,3-d]pyrimidin-2-yl)oxy)propane-1,2-diol]: the half-maximal inhibitory concentration (IC50) in assay [1] came out at 6.13 µM. Also, in assay [2], the Kd was 22.4 µM.
`Fc1c(-c2cccc3cccc(Cl)c23)ncc2c(N3C[C@H]4CC[C@@H](C3)N4)nc(OC3CCc4[nH]ncc4C3)nc12` (stereo partly drawn) [Example 142, 4-((1R,5S)-3,8-diazabicyclo[3.2.1]octan-3-yl)-7-(8-chloronaphthalen-1-yl)-8-fluoro-2-((4,5,6,7-tetrahydro-1H-indazol-5-yl)oxy)pyrido[4,3-d]pyrimidine]: in assay [1], the IC50 worked out at 8.85 µM. Also, the Kd in assay [2] is 13.8 µM.
Molecule `OCC[C@@H](CO)Oc1nc(N2C[C@H]3CC[C@@H](C2)N3)c2cnc(-c3cccc4cccc(Cl)c34)c(F)c2n1` [Example 58, (S)-2-((4-((1R,5S)-3,8-diazabicyclo[3.2.1]octan-3-yl)-7-(8-chloronaphthalen-1-yl)-8-fluoropyrido[4,3-d]pyrimidin-2-yl)oxy)butane-1,4-diol] displayed an IC50 in assay [1] of 2.33 µM. The molecule also returned a Kd in assay [2] of 4.73 µM.
As for `CN1C[C@H](F)C[C@H]1COc1nc(N2C[C@H]3CC[C@@H](C2)N3)c2cnc(-c3cc(O)cc4ccccc34)c(F)c2n1` [Example 16, 4-(4-((1R,5S)-3,8-diazabicyclo[3.2.1]octan-3-yl)-8-fluoro-2-(((2S,4R)-4-fluoro-1-methylpyrrolidin-2-yl)methoxy)pyrido[4,3-d]pyrimidin-7-yl)naphthalen-2-ol], in assay [1], the IC50 was found to be 0.0541 µM. In assay [2], the Kd stood at 0.0313 µM.
Take `OCC(O)CCOc1nc(N2C[C@H]3CC[C@@H](C2)N3)c2cnc(-c3cccc4cccc(Cl)c34)c(F)c2n1` (stereo partly drawn) [Example 57, 4-((4-((1R,5S)-3,8-diazabicyclo[3.2.1]octan-3-yl)-7-(8-chloronaphthalen-1-yl)-8-fluoropyrido[4,3-d]pyrimidin-2-yl)oxy)butane-1,2-diol]: the IC50 in assay [1] was determined as 7.29 µM. The Kd in assay [2] is > 1000 µM.
`Oc1cc(-c2ncc3c(N4C[C@H]5CC[C@@H](C4)N5)nc(OCc4ccccn4)nc3c2F)c2ccccc2c1` [Example 89, 4-(4-((1R,5S)-3,8-diazabicyclo[3.2.1]octan-3-yl)-8-fluoro-2-(pyridin-2-ylmethoxy)pyrido[4,3-d]pyrimidin-7-yl)naphthalen-2-ol] gave an IC50 in assay [1] of 0.679 µM. In assay [2], this molecule had a Kd of 4.31 µM.
Take `OCC(COc1nc(N2C[C@H]3CC[C@@H](C2)N3)c2cnc(-c3cccc4cccc(Cl)c34)c(F)c2n1)c1cccnc1` (stereo partly drawn) [Example 59, 3-((4-((1R,5S)-3,8-diazabicyclo[3.2.1]octan-3-yl)-7-(8-chloronaphthalen-1-yl)-8-fluoropyrido[4,3-d]pyrimidin-2-yl)oxy)-2-(pyridin-3-yl)propan-1-ol]: the IC50 in assay [1] stood at 0.946 µM. The molecule also had a dissociation constant Kd in assay [2] of 1.12 µM.
The molecule `CN1CCC[C@H]1COc1nc(N2C[C@H]3CC[C@@H](C2)N3)c2cnc(-c3cccc4ccc(F)c(Cl)c34)c(F)c2n1` [Example 44, 4-((1R,5S)-3,8-diazabicyclo[3.2.1]octan-3-yl)-7-(8-chloro-7-fluoronaphthalen-1-yl)-8-fluoro-2-(((S)-1-methylpyrrolidin-2-yl)methoxy)pyrido[4,3-d]pyrimidine] registered an IC50 in assay [1] of 0.0337 µM. For the same molecule, in assay [2], binding was put at a Kd of 0.0317 µM.
